Data from patent US11643438B2, “Antimicrobial peptides and methods of use” (priority 2018, dated 2023).
≈ marks a conversion by molar mass, not a printed value. Entries after “also recorded” stand apart in the source; their conditions may differ. Like-named read-outs stand apart in the source and are kept apart here. *1 amine or outer side, *2 acyl side, *3 side chain or, on linkers, in order; H or OH if unused. Where a SMILES comes first, the peptide text is derived from it. [ ]: non-standard residue; d: D form. X2 = CC[C@H](C)C[C@H](C)C[C@H](C)C[C@H](N[*:1])C(=O)[*:2]; X1 = CC[C@@H](C)[C@@H](O[*:1])C(=O)[*:2]; NMeVal(β-OH) = CN[C@H](C(=O)O)C(C)(C)O; aIle = CC[C@@H](C)[C@H](N)C(=O)O; NMeV = CN[C@H](C(=O)O)C(C)C; Sar = CNCC(=O)O

Key:
Fusarium tricinctum = assay: MIC/MFC against phytopathogenic (endophytic) fungi
Nodulosporium spp. = assay: MIC/MFC against phytopathogenic (endophytic) fungi
[1] = system: Aspergillus fumigatus NRRL5109; assay: Ex vivo model of fungal keratitis (porcine cornea); conditions: for effect of different doses on fungal growth: FIG. 10
Alternaria brassicae = assay: MIC/MFC against phytopathogenic (endophytic) fungi
Fusarium oxysporum = assay: MIC/MFC against phytopathogenic (endophytic) fungi
P. glomerata = assay: MIC/MFC against phytopathogenic (endophytic) fungi
Alternaria brassicicola = assay: MIC/MFC against phytopathogenic (endophytic) fungi
Mycosphaerella populorum = assay: MIC/MFC against phytopathogenic (endophytic) fungi; conditions: Sphaerulina musiva
[2] = Mammalian cell cytotoxicity assay (calcein/Hoechst); format: cell-based; conditions: human, read-out: LC50
Method: Cell cytotoxicity was tested against the human liver cancer cell line HepG2 and the HPV-immortalized ectocervical epithelium cell line Ect1/E6E7. The HepG2 cells were cultured in the EMEM medium supplemented with 5% FetalClone III and penicillin/streptomycin (5 Units/mL, 50 ug/mL). The Ect1/E6E7 cells were grown in the RPMI 1640 medium supplemented with 5% FetalClone III, EGF (10 ng/mL Novoprotein #C029), and penicillin/streptomycin (5 Units/mL, 50 ug/mL). For the assays, 5,000 HepG2 or Ect1/E6E7 cells were seeded into each well of a 96-well plate and allowed to attach overnight in a 37° C. humidified incubator. The next day, test compounds were diluted in DMSO, added to the wells at a final DMSO concentration of 0.5% and cells were incubated for an additional 48 hours. Cell viability was determined by the Calcein and Hoechst Assay on the Perkin Elmer Operetta. In each assay, 5 μL of the fluorescent dyes (40 μM calcein AM and 160 μM Hoechst 33342 in DMSO) and 25 μL PBS were added into each well. Plates were incubated for 30 minutes and then analyzed on the Operetta. The Harmony software was used to calculate the whole-cell area by finding all the Hoechst-labeled nuclei. The live and dead cells were assessed based on a threshold of the green calcein fluorescence. […]

Candida albicans SC5314 = assay: Ex vivo model of fungal keratitis (porcine cornea)
Alternaria tennuissiema = assay: MIC/MFC against phytopathogenic (endophytic) fungi

For `CC[C@H](C)C[C@H](C)C[C@H](C)C[C@@H]1NC(=O)[C@H](C(C)C)N(C)C(=O)[C@@H]([C@H](C)CC)OC(=O)[C@H](C(C)(C)O)N(C)C(=O)[C@H](CC(C)C)NC(=O)[C@H](C(C)C)N(C)C(=O)[C@H]([C@H](C)CC)NC(=O)[C@@H]2CCCN2C(=O)CN(C)C1=O` [Compound 1, persephacin] (cyclo(L[NMeVal(β-OH)][X1][NMeV][X2][Sar]P[aIle][NMeV])), which MFC (Fusarium tricinctum) is on record?
Its MFC is 10 µM (≈ 10.8 µg/mL).

And the MIC (Fusarium tricinctum)?
Its MIC is 5 µM (≈ 5.38 µg/mL).

And the MFC (Nodulosporium spp.)?
The MFC was over 20 µM.

And the MIC (Nodulosporium spp.)?
The MIC was over 20 µM.

What about the MFC (Nodulosporium spp.; Nodulosporium spp., […]) of the same compound?
The MFC was “neither compound showed MIC or MFC activity”.

And the MIC (Nodulosporium spp.; Nodulosporium spp., […])?
Its MIC is “neither compound showed MIC or MFC activity”.

And the “effect of different doses on fungal growth” value (“effect of different doses” below) ([1]; Aspergillus fumigatus NRRL 5109, 1,000 μg/mL)?
Its value is “eliminating”.

And the “antifungal activity (fungal growth/infection), in words” value ([1]; Aspergillus fumigatus NRRL 5109, 0.1% 118A, 2% fluconazole, 5% natamycin, FIG. 13)?
The value was “inhibited the growth; also recorded: eliminated the fungus”.

And the “effect of different doses” value ([1]; Aspergillus fumigatus NRRL 5109, 50-250 μg/mL)?
Its value is “effective at reducing”.

What about the CFU ([1]; Aspergillus fumigatus NRRL5109, 118A 0.1% (1 mg/ml), natamycin 5% (50 mg/ml), fluconazole 2% (20 mg/ml)) of the same compound?
Its CFU is 0 CFU.

What about the MFC (Alternaria brassicae) of the same compound?
Its MFC is 2.5 µM (≈ 2.69 µg/mL).

And the MIC (Alternaria brassicae)?
Its MIC is 1.25 µM (≈ 1.34 µg/mL).

What about the MFC (Fusarium oxysporum) of the same compound?
The MFC was 20 µM (≈ 21.5 µg/mL).

What about the MIC (Fusarium oxysporum) of the same compound?
The MIC was 5 µM (≈ 5.38 µg/mL).

What about the MFC (P. glomerata) of the same compound?
Its MFC is 1.25 µM (≈ 1.34 µg/mL).

And the MIC (P. glomerata)?
Its MIC is 0.625 µM (≈ 0.672 µg/mL).

And the MIC (P. glomerata; P. glomerata, […], listed as Persephacin A)?
The MIC was “.625 µM”.

And the MFC (Alternaria brassicicola)?
The MFC was 20 µM (≈ 21.5 µg/mL).

What about the MIC (Alternaria brassicicola) of the same compound?
The MIC was 5 µM (≈ 5.38 µg/mL).

What about the MFC (Mycosphaerella populorum) of the same compound?
The MFC was 10 µM (≈ 10.8 µg/mL).

What about the MIC (Mycosphaerella populorum) of the same compound?
Its MIC is 2.5 µM (≈ 2.69 µg/mL).

And the CC50 at 48 h ([2]; Ect1/E6E7 cells (HPV-immortalized ectocervical epithelium), Ect1/E6E7 cell line)?
The CC50 at 48 h was 30 µM.

And the CC50 at 48 h ([2]; HepG2 cells, HepG2 cell line)?
Its CC50 at 48 h is 30 µM.

What about the “antifungal activity (fungal growth/infection), in words” value (Candida albicans SC5314; 0.1% 118A, 2% fluconazole, 5% natamycin, FIG. 11) of the same compound?
The value was “inhibited the growth; also recorded: eliminated the fungus”.

What about the “effect of different doses” value (Candida albicans SC5314; 50-1,000 μg/mL, FIG. 8) of the same compound?
Its value is “effective at reducing or eliminating the fungus”.

What about the CFU (Candida albicans SC5314; 118A 0.1% (1 mg/ml), natamycin 5% (50 mg/ml), fluconazole 2% (20 mg/ml)) of the same compound?
Its CFU is 0 CFU.

What about the MFC (Alternaria tennuissiema) of the same compound?
Its MFC is 10 µM (≈ 10.8 µg/mL).

What about the MIC (Alternaria tennuissiema) of the same compound?
Its MIC is 10 µM (≈ 10.8 µg/mL).
